Data as given in patent publication US20180318287A1, “Imidazo[4,5-c]quinolin-2-one Compounds and Their Use in Treating Cancer” (ASTRAZENECA AB, priority 2015, published 2018).
pIC50: −log10 of the molar value.

Tests used:
Type in all cases: cell-based
mTOR = target: T1, mTOR (Homo sapiens, UniProt P42345); assay: Assay d): mTOR cellular potency (phospho-AKT Ser473 in MDA-MB-468 cells); details: MDA-MB-468 cells, phospho-AKT Ser473, 2 h; Table 2; read-out: Assay d) mTOR Cell IC50
T1 construct: phosphorylation of the Akt protein at Ser473 (AKT lies downstream of PI3Kα in the signal transduction pathway) in the MDA-MB-468 cells; endogenous in cells; host or cells: MDA-MB-468 cells (ATCC HTB 132)
Procedure: This assay was used to measure mTOR inhibition in cells. The aim of the phospho-AKT cell based mechanism of action assay using the Acumen Explorer is to identify inhibitors of either PI3Kα or mTOR-Rictor (Rapamycin insensitive companion of mTOR). This is measured by any decrease in the phosphorylation of the Akt protein at Ser473 (AKT lies downstream of PI3Kα in the signal transduction pathway) in the MDA-MB-468 cells following treatment with compound.
MDA-MB-468 cells (human breast adenocarcinoma #ATCC HTB 132) were seeded at 1500 cells/well in 40 μl of DMEM containing 10% FBS and 1% glutamine into Greiner 384 well black flat-bottomed plates. Cell plates were incubated for 18 h in a 37° C. incubator before dosing with compounds of Formula (I) in 100% DMSO using acoustic dispensing. Compounds were dosed in a 12 point concentration range into a randomised plate map. Control wells were generated either by dosing of 100% DMSO (max signal) or addition of a reference compound (a PI3K-βinhibitor) that completely eliminated the pAKT signal (min control). Plates were incubated at 37° C. for 2 h; cells were then fixed by the addition of 10 μl of a 3.7% formaldehyde solution. After 30 minutes the plates were washed with PBS using a Tecan PW384 plate washer. Wells were blocked and cells permeabilised with the addition of 40 μl of PBS containing 0.5% Tween20 and 1% Marvel™ (dried milk powder) and incubated for 60 minutes at r.t. The plates were washed with PBS containing 0.5% (v/v) Tween20 and 20 μl rabbit anti-phospho AKT Ser473 (Cell Signalling Technologies, #3787) in same PBS-Tween+1% Marvel™ was added and incubated overnight at 4° C.
Plates were washed 3 times with PBS+0.05% Tween 20 using a Tecan PW384. 20 μl of secondary antibody Alexa Fluor 488 anti-Rabbit (Molecular Probes, #A11008) diluted in PBS+0.05% Tween20 containing 1% Marvel™ was added to each well and incubated for 1 h at r.t. Plates were washed three times as before then 20 μl PBS added to each well and plates sealed with a black plate sealer.
The plates were read on an Acumen plate reader as soon as possible, measuring green fluorescence after excitation with 488 nm laser. Using this system IC50 values were generated and quality of plates was determined by control wells. Reference compounds were run each time to monitor assay performance.

ATM kinase = target: T2, ATM kinase (Homo sapiens, UniProt Q13315); assay: Assay a): ATM cellular potency (pATM Ser1981 in irradiated HT29 cells); details: HT29 cells, X-ray irradiation, pATM Ser1981; Table 2; read-out: Assay a) ATM Cell IC50
T2 construct: endogenous in cells; host or cells: HT29 cells (ECACC #85061109)
T2 sequence (Q13315 whole entry): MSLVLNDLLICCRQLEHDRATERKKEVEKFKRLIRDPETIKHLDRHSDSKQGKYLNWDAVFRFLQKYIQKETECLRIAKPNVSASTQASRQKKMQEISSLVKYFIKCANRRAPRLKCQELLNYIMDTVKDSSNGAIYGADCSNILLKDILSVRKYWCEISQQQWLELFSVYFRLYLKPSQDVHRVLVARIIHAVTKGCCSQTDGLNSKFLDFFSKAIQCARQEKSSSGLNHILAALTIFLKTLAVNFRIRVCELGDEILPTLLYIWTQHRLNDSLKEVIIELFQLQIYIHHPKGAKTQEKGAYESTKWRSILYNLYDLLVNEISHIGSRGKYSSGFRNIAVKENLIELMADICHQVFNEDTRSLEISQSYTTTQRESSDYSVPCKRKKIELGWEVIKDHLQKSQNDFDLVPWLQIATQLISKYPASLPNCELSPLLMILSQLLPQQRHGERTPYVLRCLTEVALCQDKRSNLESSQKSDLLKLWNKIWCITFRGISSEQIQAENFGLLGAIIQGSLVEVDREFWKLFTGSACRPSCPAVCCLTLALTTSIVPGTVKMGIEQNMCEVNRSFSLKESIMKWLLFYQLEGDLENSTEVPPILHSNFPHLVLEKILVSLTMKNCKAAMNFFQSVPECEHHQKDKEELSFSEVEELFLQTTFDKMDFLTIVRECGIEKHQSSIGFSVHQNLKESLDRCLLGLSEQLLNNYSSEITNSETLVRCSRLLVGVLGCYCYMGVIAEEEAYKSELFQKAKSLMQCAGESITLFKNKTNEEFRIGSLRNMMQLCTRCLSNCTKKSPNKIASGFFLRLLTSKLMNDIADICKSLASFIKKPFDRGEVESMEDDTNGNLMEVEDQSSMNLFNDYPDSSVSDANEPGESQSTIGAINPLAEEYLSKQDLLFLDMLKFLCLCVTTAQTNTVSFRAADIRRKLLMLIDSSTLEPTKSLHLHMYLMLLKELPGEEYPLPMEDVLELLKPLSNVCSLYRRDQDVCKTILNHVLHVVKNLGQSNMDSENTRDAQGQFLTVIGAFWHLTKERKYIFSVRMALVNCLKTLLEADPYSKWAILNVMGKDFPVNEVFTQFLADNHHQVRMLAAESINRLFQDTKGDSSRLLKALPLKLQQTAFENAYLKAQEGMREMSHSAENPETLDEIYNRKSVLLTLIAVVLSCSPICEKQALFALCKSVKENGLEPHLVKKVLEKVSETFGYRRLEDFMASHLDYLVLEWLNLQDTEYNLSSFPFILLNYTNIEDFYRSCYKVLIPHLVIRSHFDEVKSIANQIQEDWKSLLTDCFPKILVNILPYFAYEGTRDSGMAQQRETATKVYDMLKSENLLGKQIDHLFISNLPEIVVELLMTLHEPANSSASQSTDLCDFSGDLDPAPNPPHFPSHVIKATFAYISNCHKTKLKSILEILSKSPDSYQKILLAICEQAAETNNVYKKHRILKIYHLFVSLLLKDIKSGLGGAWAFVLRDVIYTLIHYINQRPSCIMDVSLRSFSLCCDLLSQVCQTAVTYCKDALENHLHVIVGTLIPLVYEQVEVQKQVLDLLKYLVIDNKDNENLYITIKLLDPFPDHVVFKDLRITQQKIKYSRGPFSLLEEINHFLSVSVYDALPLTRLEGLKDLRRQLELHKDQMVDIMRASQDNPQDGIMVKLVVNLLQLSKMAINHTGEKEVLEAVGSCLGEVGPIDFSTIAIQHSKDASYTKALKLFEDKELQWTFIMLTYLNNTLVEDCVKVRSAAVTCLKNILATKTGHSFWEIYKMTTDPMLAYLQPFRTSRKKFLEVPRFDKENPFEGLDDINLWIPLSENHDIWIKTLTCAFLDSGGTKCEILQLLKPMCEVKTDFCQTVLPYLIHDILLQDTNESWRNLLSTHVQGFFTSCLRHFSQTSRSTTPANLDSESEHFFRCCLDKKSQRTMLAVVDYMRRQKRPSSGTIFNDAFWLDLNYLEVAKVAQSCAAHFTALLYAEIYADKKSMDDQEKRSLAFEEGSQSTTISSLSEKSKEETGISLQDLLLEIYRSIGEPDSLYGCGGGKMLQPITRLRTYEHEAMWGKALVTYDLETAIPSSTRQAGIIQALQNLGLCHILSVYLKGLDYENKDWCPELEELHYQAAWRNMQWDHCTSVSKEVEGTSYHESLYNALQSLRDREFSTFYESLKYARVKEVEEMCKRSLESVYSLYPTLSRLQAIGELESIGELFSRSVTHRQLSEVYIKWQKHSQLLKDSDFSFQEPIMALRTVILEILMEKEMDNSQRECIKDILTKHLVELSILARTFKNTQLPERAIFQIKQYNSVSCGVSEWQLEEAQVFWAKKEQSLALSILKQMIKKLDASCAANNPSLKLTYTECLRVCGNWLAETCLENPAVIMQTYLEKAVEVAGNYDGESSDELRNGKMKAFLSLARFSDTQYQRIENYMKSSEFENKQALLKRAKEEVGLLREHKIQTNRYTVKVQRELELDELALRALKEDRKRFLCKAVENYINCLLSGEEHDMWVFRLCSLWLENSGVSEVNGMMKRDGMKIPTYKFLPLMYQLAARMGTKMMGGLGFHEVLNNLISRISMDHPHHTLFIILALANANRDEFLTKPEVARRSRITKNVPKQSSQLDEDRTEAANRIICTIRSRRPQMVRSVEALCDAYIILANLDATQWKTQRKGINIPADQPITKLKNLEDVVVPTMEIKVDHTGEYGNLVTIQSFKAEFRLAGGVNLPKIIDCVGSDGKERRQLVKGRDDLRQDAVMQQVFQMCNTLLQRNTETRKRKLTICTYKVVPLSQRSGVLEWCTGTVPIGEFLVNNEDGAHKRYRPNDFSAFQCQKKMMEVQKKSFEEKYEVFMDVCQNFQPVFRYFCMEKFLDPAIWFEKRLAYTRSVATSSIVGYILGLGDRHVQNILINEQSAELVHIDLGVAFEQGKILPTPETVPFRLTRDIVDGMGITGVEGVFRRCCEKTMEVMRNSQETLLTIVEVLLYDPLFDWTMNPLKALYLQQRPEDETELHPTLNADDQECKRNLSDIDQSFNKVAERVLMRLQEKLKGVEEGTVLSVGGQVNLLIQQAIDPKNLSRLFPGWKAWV
Procedure: Most ATM molecules in the cell are rapidly phosphorylated on this site after doses of radiation as low as 0.5 Gy, and binding of a phosphospecific antibody is detectable after the introduction of only a few DNA double-strand breaks in the cell.
The rationale of the p ATM assay is to identify inhibitors of ATM in cells. HT29 cells are incubated with test compounds for 1 hr prior to X-ray-irradiation. 1 h later the cells are fixed and stained for p ATM (Ser1981). The fluorescence is read on the arrayscan imaging platform.
The following morning compounds of Formula (I) in 100% DMSO were added to assay plates by acoustic dispensing. After 1 h incubation at 37° C. and 5% CO2, plates (up to 6 at a time) were irradiated using the X-RAD 320 instrument (PXi) with equivalent to ˜600cGy. Plates were returned to the incubator for a further 1 h. […] Then 20 μl of 0.1% Triton X100 in PBS was added and incubated for 20 minutes at r.t., to permeabalise cells. Then the plates were washed once with […] PBS, using a Biotek EL405 plate washer.
After 1 h incubation at r.t., the plates were washed three times with 50 μl/well PBS, using a Biotek EL405 plate washer, and plates were sealed and kept in PBS at 4° C. until read. Plates were read using an ArrayScan VTI instrument, using an XF53 filter with 10× objective.

ATR kinase = target: T3, ATR kinase (Homo sapiens, UniProt Q13535); assay: Assay b): ATR cellular potency (pChk1 Ser345 in HT29 cells after 4NQO); details: HT29 cells, 4NQO, pChk1 Ser345; Table 2; read-out: Assay b) ATR Cell IC50
T3 construct: endogenous in cells; host or cells: HT29 cells (ECACC #85061109)
Procedure: ATR is a PI 3-kinase-related kinase which phosphorylates multiple substrates on serine or threonine residues in response to DNA damage during or replication blocks. Chk1, a downstream protein kinase of ATR, plays a key role in DNA damage checkpoint control. Activation of Chk1 involves phosphorylation of Ser317 and Ser345 (the latter regarded as the preferential target for phosphorylation/activation by ATR).
The following morning compound of Formula (I) in 100% DMSO were added to assay plates by acoustic dispensing. After 1 h incubation at 37° C. and 5% CO2, 40 nl of 3 mM 4NQO in 100% DMSO was added to all wells by acoustic dispensing, except minimum control wells which were left untreated with 4NQO to generate a null response control. Plates were returned to the incubator for a further 1 h. […] Then 20 μl of 0.1% Triton X100 in PBS was added and incubated for 10 minutes at r.t., to permeabalise cells. Then the plates were washed once with 50 μl/well PBS, using a Biotek EL405 plate washer.
After 2 h incubation at r.t., the plates were washed three times with 50 μl/well PBS, using a Biotek EL405 plate washer, and plates were then sealed with black plate seals until read. Plates were read using an ArrayScan VTI instrument, using an XF53 filter with 10× objective.

Compound | pIC50 (mTOR) | pIC50 (ATM kinase) | pIC50 (ATR kinase)
CO[C@H]1CCC[C@H](n2c(=O)n(C)c3cnc4ccc(-c5ccc(OCCCN6CCCC6)cc5)cc4c32)C1 (single isomer, unassigned) [Example 30, 1-[trans-3-methoxycyclohexyl]-3-methyl-8-[4-(3-pyrrolidin-1-ylpropoxy)phenyl]imidazo[4,5-c]quinolin-2-one] | 5.77 | 8.79 | 4.81
CO[C@@H]1CC[C@H](n2c(=O)n(C)c3cnc4ccc(-c5ccc(OCCCN(C)C)cc5)cc4c32)C1 (single isomer, unassigned) [Example 34, 8-[4-[3-(dimethylamino)propoxy]phenyl]-1-[cis-3-methoxycyclopentyl]-3-methyl-imidazo[4,5-c]quinolin-2-one] | 5.33 |  | 
CO[C@@H]1CC[C@@H](n2c(=O)n(C)c3cnc4cc(F)c(-c5ccc(OCCCN6CCC6)cc5)cc4c32)C1 (single isomer, unassigned) [Example 24, 8-[4-[3-(azetidin-1-yl)propoxy]phenyl]-7-fluoro-1-[trans-3-methoxycyclopentyl]-3-methyl-imidazo[4,5-c]quinolin-2-one] | 5.23 | 9.04 | < 4.61
CO[C@@H]1CC[C@@H](n2c(=O)n(C)c3cnc4ccc(-c5ccc(OCCCN6CCCC6)cc5)cc4c32)C1 (single isomer, unassigned) [Example 20, 1-[trans-3-methoxycyclopentyl]-3-methyl-8-[4-(3-pyrrolidin-1-ylpropoxy)phenyl]imidazo[4,5-c]quinolin-2-one] | 5.26 | 9.34 | 4.67
CO[C@H]1C[C@H](n2c(=O)n(C)c3cnc4ccc(-c5ccc(OCCCN(C)C)cc5)cc4c32)C1 [Example 21, 8-[4-[3-(dimethylamino)propoxy]phenyl]-1-(trans-3-methoxycyclobutyl)-3-methyl-imidazo[4,5-c]quinolin-2-one] | 5.29 | 9.27 | < 4.52
CO[C@H]1C[C@H](n2c(=O)n(C)c3cnc4ccc(-c5ccc(OCCCN6CCCC6)cc5)cc4c32)C1 [Example 42, 1-(trans-3-methoxycyclobutyl)-3-methyl-8-[4-(3-pyrrolidin-1-ylpropoxy)phenyl]imidazo[4,5-c]quinolin-2-one] | 5.66 | 9.16 | < 4.52
Cn1c(=O)n([C@H]2CCCOC2)c2c3cc(-c4ccc(OCCCN5CCCC5)cc4)ccc3ncc21 [Example 15, 3-methyl-8-[4-(3-pyrrolidin-1-ylpropoxy)phenyl]-1-[(3S)-tetrahydropyran-3-yl]imidazo[4,5-c]quinolin-2-one] | 5.59 | 9.04 | 4.67
CO[C@@H]1CCC[C@H](n2c(=O)n(C)c3cnc4ccc(-c5ccc(OCCCN(C)C)cc5)cc4c32)C1 (relative stereo) [Example 33, 8-[4-[3-(dimethylamino)propoxy]phenyl]-1-[cis-3-methoxycyclohexyl]-3-methyl-imidazo[4,5-c]quinolin-2-one] | 5.91 | 8.64 | 4.55
CO[C@H]1CC[C@H](n2c(=O)n(C)c3cnc4ccc(-c5ccc(OCCCN(C)C)cc5)cc4c32)C1 [Example 6, 8-[4-[3-(Dimethylamino)propoxy]phenyl]-1-[(1S,3S)-3-methoxycyclopentyl]-3-methyl-imidazo[4,5-c]quinolin-2-one] | 6.11 |  | 
CO[C@@H]1CCC[C@H](n2c(=O)n(C)c3cnc4ccc(-c5ccc(OCCCN6CCCC6)cc5)cc4c32)C1 (relative stereo) [Example 39, 1-[cis-3-methoxycyclohexyl]-3-methyl-8-[4-(3-pyrrolidin-1-ylpropoxy)phenyl]imidazo[4,5-c]quinolin-2-one] | 6.05 |  | 
Cn1c(=O)n(C2CCOCC2)c2c3cc(-c4ccc(OCCCN5CCCCC5)cc4)ccc3ncc21 [Example 18, 3-methyl-8-[4-[3-(1-piperidyl)propoxy]phenyl]-1-tetrahydropyran-4-yl-imidazo[4,5-c]quinolin-2-one] | 5.58 |  | < 4.75

The remaining lines, values ahead:

pIC50 (mTOR) | pIC50 (ATM kinase) | pIC50 (ATR kinase) | Compound
5.25 | 8.45 | 4.66 | CO[C@H]1CC[C@H](n2c(=O)n(C)c3cnc4ccc(-c5ccc(OCCN(C)C)cc5)cc4c32)C1 [Example 52, 8-[4-[2-(dimethylamino)ethoxy]phenyl]-1-[(1S,3S)-3-methoxycyclopentyl]-3-methyl-imidazo[4,5-c]quinolin-2-one]
5.06 | 8.40 | 4.70 | CN(C)CCCOc1ccc(-c2cc3c(cc2F)ncc2c3n(C3CCOCC3)c(=O)n2C)cc1 [Example 45, 8-[4-[3-(Dimethylamino)propoxy]phenyl]-7-fluoro-3-methyl-1-tetrahydropyran-4-yl-imidazo[4,5-c]quinolin-2-one]
5.35 | 7.95 | < 4.52 | CO[C@H]1C[C@@H](n2c(=O)n(C)c3cnc4ccc(-c5ccc(OCCN(C)C)cc5)cc4c32)C1 [Example 55, 8-[4-[2-(dimethylamino)ethoxy]phenyl]-1-(3-(cis)methoxycyclobutyl)-3-methyl-imidazo[4,5-c]quinolin-2-one]
≤ 4.52 | 7.87 | < 4.59 | Cn1c(=O)n([C@@H]2CCCOC2)c2c3cc(-c4ccc(OCCN5CCCC5)cc4)ccc3ncc21 [Example 50, 3-methyl-8-[4-(2-pyrrolidin-1-ylethoxy)phenyl]-1-[(3R)-tetrahydropyran-3-yl]imidazo[4,5-c]quinolin-2-one]
5.75 | 7.61 | < 4.57 | CN(C)CCOc1ccc(-c2ccc3ncc4c(c3c2)n([C@@H]2CCCOC2)c(=O)n4C)cc1 [Example 48, 8-[4-[2-(dimethylamino)ethoxy]phenyl]-3-methyl-1-[(3R)-tetrahydropyran-3-yl]imidazo[4,5-c]quinolin-2-one]
5.75 | 7.99 | < 4.52 | Cn1c(=O)n([C@H]2CCCOC2)c2c3cc(-c4ccc(OCCN5CCCC5)cc4)ccc3ncc21 [Example 51, 3-methyl-8-[4-(2-pyrrolidin-1-ylethoxy)phenyl]-1-[(3S)-tetrahydropyran-3-yl]imidazo[4,5-c]quinolin-2-one]
